Patent publication US11465965B2, “Double-headed protease inhibitor” (UBE INDUSTRIES, LTD., priority 2017, dated 2022)
Counter-ions that a name gives are not always drawn.

How the values were obtained:
[1] = system: DIO mouse; experiment: Anti-obesity effect test using DIO mouse; type: in vivo; conditions: 336 h, DIO mice, vs vehicle group, read-out: Weight loss rate; for inhibition in vivo at 50 mg/kg: oral 50 mg/kg once daily for 2 weeks
Description: (Test Example 4): Anti-Obesity Effect Test Using DIO Mouse
Diet-induced obesity (DIO) mice (D-12492 diet, male, C57BL-DIO, 26 to 28-week old) were orally administered with a 0.5 W/V % methylcellulose suspension comprising each test compound (Compound administration group, 5 or 6 mice/group) or a 0.5 W/V % methylcellulose suspension (Compound non-administration group (Vehicle group), 6 mice/group) once daily for 2 weeks. Weight loss rate was calculated by the following equation. Weight loss rate (%) of each Compound administration group−(1−average weight at the last day of the test of each Compound administration group/average weight at the last day of the test of Vehicle group)×100

[2] = biological target: T1, Human recombinant enteropeptidase (Homo sapiens, UniProt P98073); experiment: Human enteropeptidase inhibition test; type: biochemical; conditions: 20 minutes after reaction start, read-out: Inhibition rate (enteropeptidase); for inhibition at 0.01 µM: compound concentration 10 nM; for inhibition at 0.1 µM: compound concentration 100 nM; for inhibition at 0.001 µM: compound concentration 1 nM
T1 construct: purchased BIO Vision Inc. 7529-50
T1 sequence (P98073 whole entry): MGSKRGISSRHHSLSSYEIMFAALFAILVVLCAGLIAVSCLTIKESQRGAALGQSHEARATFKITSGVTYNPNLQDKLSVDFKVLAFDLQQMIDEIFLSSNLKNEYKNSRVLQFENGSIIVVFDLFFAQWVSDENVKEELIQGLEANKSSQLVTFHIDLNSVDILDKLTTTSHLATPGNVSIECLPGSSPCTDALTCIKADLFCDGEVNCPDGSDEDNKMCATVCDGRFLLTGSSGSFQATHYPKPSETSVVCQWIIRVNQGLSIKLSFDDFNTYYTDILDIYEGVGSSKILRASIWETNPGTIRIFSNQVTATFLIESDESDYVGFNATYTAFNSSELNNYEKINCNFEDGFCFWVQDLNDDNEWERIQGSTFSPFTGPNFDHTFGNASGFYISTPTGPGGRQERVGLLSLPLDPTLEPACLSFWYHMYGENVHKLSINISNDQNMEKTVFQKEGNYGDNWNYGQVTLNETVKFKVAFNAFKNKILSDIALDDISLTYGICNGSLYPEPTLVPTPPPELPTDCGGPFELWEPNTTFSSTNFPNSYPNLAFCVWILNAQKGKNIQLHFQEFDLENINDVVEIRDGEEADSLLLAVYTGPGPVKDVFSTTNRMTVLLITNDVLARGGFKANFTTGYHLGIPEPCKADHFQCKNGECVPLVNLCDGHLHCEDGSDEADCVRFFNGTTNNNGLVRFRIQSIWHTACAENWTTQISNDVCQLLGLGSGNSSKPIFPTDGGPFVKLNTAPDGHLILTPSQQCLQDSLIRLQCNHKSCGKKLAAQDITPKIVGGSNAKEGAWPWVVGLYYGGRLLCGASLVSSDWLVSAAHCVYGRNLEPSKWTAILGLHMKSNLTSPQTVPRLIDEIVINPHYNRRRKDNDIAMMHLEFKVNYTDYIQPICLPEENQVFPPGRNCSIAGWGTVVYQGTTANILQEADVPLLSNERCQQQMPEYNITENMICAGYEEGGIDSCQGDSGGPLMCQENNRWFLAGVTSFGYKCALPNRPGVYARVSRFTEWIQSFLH
Description: (Test Example 1): Human Enteropeptidase Inhibition Test
Human recombinant enteropeptidase (manufactured by BIO Vision Inc., catalog no.: 7529-50) was diluted with an assay buffer (50 mM tricine (pH8.0), 0.01 W/V % Tween 20, 10 mM CaCl2) to prepare an […] enzyme solution. Then, 5FAM-Abu-Gly-Asp-Asp-Lys-Ile-Val-Gly-Gly-Lys (CPQ2)-Lys-Lys-NH2 (manufactured by CHINESE PEPTIDE COMPANY, purity: 94.5) was diluted with the assay buffer to prepare a 1.5 μM substrate solution. Each test compound was dissolved into DMSO, then diluted with the assay buffer 100 times, and further appropriately diluted with an assay buffer comprising 1% DMSO to prepare each compound solution. 10 μL of the compound solution, 15 μL of the assay buffer, and 50 μL of the substrate solution were added to a 96 well black plate (manufactured by Thermo Fisher Scientific Inc., code no.: 9502867), mixed, then 25 μL of the enzyme solution was added thereto, and mixed to start the reaction. Fluorescence intensities at excitation wavelength 485 nm and fluorescence wavelength 535 nm were measured by using a fluorescence plate reader (Flex station 3) (Test compound addition group). Also, the same reaction as described above except for not adding each test compound was carried out (Test compound non-addition group). Additionally, the same reaction as described above except for not adding each test compound and the enzyme was carried out (Control group). Inhibition rate was calculated by the following equation using fluorescence intensity after 20 minutes of reaction start. Inhibition rate (%)=(1−(fluorescence intensity of Test compound addition group−fluorescence intensity of Control group)÷(fluorescence intensity of Test compound non-addition group−fluorescence intensity of Control group))×100

[3] = biological target: T2, Human recombinant trypsin (Homo sapiens, UniProt P07477); experiment: Human trypsin inhibition test; type: biochemical; conditions: 20 minutes after reaction start, read-out: Inhibition rate (trypsin); for inhibition at 0.001 µM: compound concentration 1 nM; for inhibition at 0.01 µM: compound concentration 10 nM; for inhibition at 0.1 µM: compound concentration 100 nM
T2 construct: purchased Wako Pure Chemical Industries, Ltd. 206-17171
Description: (Test Example 2): Human Trypsin Inhibition Test
Human recombinant trypsin (manufactured by Wako Pure Chemical Industries, Ltd., code no.: 206-17171) was diluted with an assay buffer (0.1 M Tris-HCl (pH8.0), 0.15 M NaCl, 10 mM CaCl2, 0.05% Brij35) to prepare a 10 ng/mL enzyme solution. Then, Boc-Phe-Ser-Arg-MCA (manufactured by PEPTIDE INSTITUTE, INC., code no.: 3107-v) was diluted with the assay buffer to prepare a 40 μM substrate solution. Each test compound was dissolved into DMSO, then diluted with the assay buffer 100 times, and further appropriately diluted with an assay buffer comprising 1% DMSO to prepare each compound solution. 10 μL of the compound solution, 15 μL of the assay buffer, and 50 μL of the substrate solution were added to a 96 well black plate (manufactured by Thermo Fisher Scientific Inc., code no.: 9502867), mixed, and then 25 μL of the enzyme solution was added thereto, and mixed to start the reaction. Fluorescence intensities at excitation wavelength 355 nm and fluorescence wavelength of 460 nm were measured by using a fluorescence plate reader (Flex station 3) (Test compound addition group). Also, the same reaction as described above except for not adding each test compound was carried out (Test compound non-addition group). Additionally, the same reaction as described above except for not adding each test compound and the enzyme was carried out (Control group). Inhibition rate was calculated by the following equation using fluorescence intensity after 20 minutes of reaction start. Inhibition rate (%)=(1−(fluorescence intensity of Test compound addition group−fluorescence intensity of Control group)[…](fluorescence intensity of Test compound non-addition group−fluorescence intensity of Control group))×100

[4] = Rat pharmacokinetic (PK) test (plasma concentration after oral administration); conditions: male, SD, 10 mg/kg

| SMILES | inhibition at 0.1 µM [2] [%] | inhibition at 0.1 µM [3] [%] | other results |
| --- | --- | --- | --- |
| N=C(N)Nc1ccc2c(c1)CCCOc1c(cccc1C(=O)N(CCOCCOCCN(C(=O)c1cccc3c1OCCCc1cc(NC(=N)N)ccc1C(=O)O3)[C@@H](CC(=O)O)C(=O)O)[C@@H](CC(=O)O)C(=O)O)OC2=O [20-(d), (2S,13S)-3,12-bis(10-guanidino-13-oxo-6,7,8,13-tetrahydrodibenzo[b,f][1,4]dioxecin-4-carbonyl)-6,9-dioxa-3,12-diazatetradecane-1,2,13,14-tetracarboxylic acid] |  |  | inhibition in vivo at 50 mg/kg [1]: ≥ 4% |
| N=C(N)Nc1ccc(C(=O)Oc2ccc(CNS(=O)(=O)N[C@@H](CC(=O)O)C(=O)O)cc2)cc1 [Reference Example 55-(b), (S)-2-((N-(4-((4-guanidinobenzoyl)oxy)benzyl)sulfamoyl)amino)succinic acid] | ≥ 50 | ≥ 50 |  |
| N=C(N)Nc1ccc(C(=O)Oc2ccc(CNS(=O)(=O)N(Cc3cccc(C(=O)O)c3)[C@@H](CC(=O)O)C(=O)O)cc2)cc1 [Reference Example 52-(b), (S)-2-((3-carboxybenzyl)(N-(4-((4-guanidinobenzoyl)oxy)benzyl)sulfamoyl)amino)succinic acid trifluoroacetate] | ≥ 50 | ≥ 50 |  |
| N=C(N)Nc1ccc(C(=O)Oc2ccc(COC(=O)NC(CC(=O)O)C(=O)N[C@@H](CC(=O)O)C(=O)O)cc2)cc1 (stereo partly drawn) [Reference Example 41-(b), (2S)-2-(3-carboxy-2-((((4-((4-guanidinobenzoyl)oxy)benzyl)oxy)carbonyl)amino)propaneamine)succinic acid trifluoroacetate] | ≥ 50 | ≥ 50 |  |
| N=C(N)Nc1ccc(C(=O)Oc2cccc(CNS(=O)(=O)N[C@@H](CC(=O)O)C(=O)O)c2)cc1 [Reference Example 73-(b), (S)-2-((N-(3-((4-guanidinobenzoyl)oxy)benzyl)sulfamoyl)amino)succinic acid trifluoroacetate] | ≥ 50 | ≥ 50 |  |
| N=C(N)Nc1ccc(C(=O)Oc2ccc(COC(=O)N[C@@H](CC(=O)O)C(=O)O)cc2)cc1 [Reference Example 31-(b), (5)-2-((((4-((4-guanidinobenzoyl)oxy)benzyl)oxy)carbonyl)amino)succinic acid trifluoroacetate] | ≥ 50 | ≥ 50 |  |
| Cl.N=C(N)Nc1ccc(C(=O)Oc2ccc(CNS(=O)(=O)N(CCOCCOCCOCCN([C@@H](CC(=O)O)C(=O)O)S(=O)(=O)NCc3ccc(OC(=O)c4ccc(NC(=N)N)cc4)cc3)[C@@H](CC(=O)O)C(=O)O)cc2)cc1 [3-(c), 2S,16S)-3,15-bis(N-(4-(4-guanidinobenzoyl)oxy)benzyl)sulfamoyl)-6,9,12-trioxa-3,15-diazaheptadecane-1,2,16,17-tetracarboxylic acid hydrochloride] |  |  | inhibition in vivo at 100 mg/kg ([1]; oral 100 mg/kg once daily for 2 weeks): ≥ 4% |
| N=C(N)Nc1ccc(C(=O)Oc2ccc(COC(=O)N(Cc3cccc(C(=O)O)c3)[C@@H](CC(=O)O)C(=O)O)cc2)cc1 [Reference Example 49-(b), (S)-2-(3-carboxybenzyl) (((4-((4-guanidinobenzoyl)oxy)benzyl)oxy)carbonyl)amino)succinic acid trifluoroacetate] | ≥ 50 | ≥ 50 |  |
| Cl.N=C(N)Nc1ccc(C(=O)Oc2ccc(CNS(=O)(=O)N(CCOCCOCCOCCN([C@@H](CC(=O)O)C(=O)O)S(=O)(=O)NCc3ccc(OC(=O)c4ccc(NC(=N)N)cc4)cc3)[C@@H](CC(=O)O)C(=O)O)cc2)cc1 [3-(c)] |  |  | AUC [4]: ≤ 100 ng·h/mL |
| N=C(N)Nc1ccc(C(=O)Oc2cccc(C(=O)N[C@@H](CC(=O)O)C(=O)O)c2)cc1 [Reference Example 87-(d), (S)-2-(3-((4-guanidinobenzoyl)oxy)benzamide)succinic acid] | ≥ 50 | ≥ 50 |  |

The next lines start with results.

| inhibition at 0.1 µM [2] [%] | inhibition at 0.1 µM [3] [%] | SMILES | other results |
| --- | --- | --- | --- |
| ≥ 50 | ≥ 50 | N=C(N)Nc1ccc(C(=O)Oc2ccc(CN(CCOCCOCCN(Cc3ccc(OC(=O)c4ccc(NC(=N)N)cc4)cc3)S(=O)(=O)N[C@@H](CC(=O)O)C(=O)O)S(=O)(=O)N[C@@H](CC(=O)O)C(=O)O)cc2)cc1 [24-(a)] | inhibition at 0.01 µM [2]: ≥ 50%; inhibition at 0.001 µM [3]: ≥ 50%; inhibition at 0.01 µM [3]: ≥ 50%; inhibition in vivo at 50 mg/kg [1]: ≥ 4% |
|  | ≥ 50 | CN(Cc1ccc(OC(=O)c2ccc(NC(=N)N)cc2)cc1)S(=O)(=O)N(CCOCCOCCN([C@@H](CC(=O)O)C(=O)O)S(=O)(=O)N(C)Cc1ccc(OC(=O)c2ccc(NC(=N)N)cc2)cc1)[C@@H](CC(=O)O)C(=O)O [22-(a), (2S,13S)-3,12-bis(N-(4-((4-guanidinobenzoyl)oxy)benzyl)-N-methylsulfamoyl)-6,9-dioxa-3,12-diazatetradecane-1,2,13,14-tetracarboxylic acid trifluoroacetate] | inhibition at 0.001 µM [2]: ≥ 50%; inhibition at 0.01 µM [2]: ≥ 50%; inhibition at 0.001 µM [3]: ≥ 50%; inhibition at 0.01 µM [3]: ≥ 50% |
| ≥ 50 | ≥ 50 | N=C(N)Nc1ccc(C(=O)Oc2ccc(CNS(=O)(=O)N(CCOCCOCCN(C(CC(=O)O)CC(=O)O)S(=O)(=O)NCc3ccc(OC(=O)c4ccc(NC(=N)N)cc4)cc3)C(CC(=O)O)CC(=O)O)cc2)cc1 [23-(c), 3,3′-(((ethane-1,2-diylbis(oxy))bis(ethane-2,1-diyl))bis((N-(4-((4-guanidinobenzoyl)oxy)benzyl)sulfamoyl)azanediyl))dipentanedioic acid] | inhibition at 0.01 µM [2]: ≥ 50%; inhibition at 0.001 µM [3]: ≥ 50%; inhibition at 0.01 µM [3]: ≥ 50% |
| ≥ 50 | ≥ 50 | N=C(N)Nc1ccc(C(=O)Oc2cccc(CNS(=O)(=O)N(CCOCCOCCN([C@@H](CC(=O)O)C(=O)O)S(=O)(=O)NCc3cccc(OC(=O)c4ccc(NC(=N)N)cc4)c3)[C@@H](CC(=O)O)C(=O)O)c2)cc1 [25-(b), (2S,13S)-3,12-bis(N-(3-((4-guanidinobenzoyl)oxy)benzyl)sulfamoyl)-6,9-dioxa-3,12-diazatetradecane-1,2,13,14-tetracarboxylic acid] | inhibition at 0.001 µM [2]: ≥ 50%; inhibition at 0.01 µM [2]: ≥ 50%; inhibition at 0.01 µM [3]: ≥ 50%; inhibition in vivo at 50 mg/kg [1]: ≥ 4% |
